Tests used:
NCI-H69 [1] = assay: Survival of human H69 cells at 15.7 uM under deem light after 96 hrs by MTT assay relative to control; assay type: functional; details: NCI-H69, 96 h, read-out: Survival
[2] = Survival of human MDA-MB cells at 10 uM under deem light after 96 hrs by MTT assay relative to control; assay type: functional; details: read-out: Survival
[3] = Cytotoxicity against human MDA-MB cells under deem light after 96 hrs by MTT assay; assay type: functional, cell-based
NCI-H69 [4] = assay: Survival of human H69 cells at 1 uM under deem light after 96 hrs by MTT assay relative to control; assay type: functional; details: NCI-H69, 96 h, read-out: Survival
[5] = Photohemolysis in human RBC in absence of light; assay type: ADME, cell-based; details: erythrocyte
[6] = Survival of human 2780.9S cells at 1 uM under deem light after 96 hrs by MTT assay relative to control; assay type: functional; details: read-out: Survival
K562 [7] = assay: Survival of human K562 cells at 1 uM under deem light after 96 hrs by MTT assay relative to control; assay type: functional; details: K562, 96 h, read-out: Survival
[8] = Survival of human H209 cells at 0.1 uM under deem light after 96 hrs by MTT assay relative to control; assay type: functional; details: NCI-H209, 96 h, read-out: Survival
[9] = Survival of human H209 cells at 15.7 uM under deem light after 96 hrs by MTT assay relative to control; assay type: functional; details: NCI-H209, 96 h, read-out: Survival
[10] = Survival of human MDA-MB cells at 0.1 uM under deem light after 96 hrs by MTT assay relative to control; assay type: functional; details: read-out: Survival
Raji [11] = assay: Survival of human Raji cells at 15.7 uM under deem light after 96 hrs by MTT assay relative to control; assay type: functional; details: read-out: Survival
SiHa [12] = assay: Survival of human SIHA cells at 50 uM under deem light after 96 hrs by MTT assay relative to control; assay type: functional; details: read-out: Survival
K562 [13] = assay: Survival of human K562 cells at 100 uM under deem light after 96 hrs by MTT assay relative to control; assay type: functional; details: K562, 96 h, read-out: Survival
Raji [14] = assay: Survival of human Raji cells at 50 uM under deem light after 96 hrs by MTT assay relative to control; assay type: functional; details: read-out: Survival
Raji [15] = assay: Survival of human Raji cells at 0.1 uM under deem light after 96 hrs by MTT assay relative to control; assay type: functional; details: read-out: Survival
SiHa [16] = assay: Survival of human SIHA cells at 1 uM under deem light after 96 hrs by MTT assay relative to control; assay type: functional; details: read-out: Survival
HeLa [17] = assay: Cytotoxicity against human HeLa cells under deem light after 96 hrs by MTT assay; assay type: functional, cell-based
[18] = Survival of human MDA-MB cells at 1 uM under deem light after 96 hrs by MTT assay relative to control; assay type: functional; details: read-out: Survival
[19] = Survival of human MDA-MB cells at 100 uM under deem light after 96 hrs by MTT assay relative to control; assay type: functional; details: read-out: Survival
Raji [20] = assay: Survival of human Raji cells at 100 uM under deem light after 96 hrs by MTT assay relative to control; assay type: functional; details: read-out: Survival
[21] = Survival of human MDA-MB cells at 50 uM under deem light after 96 hrs by MTT assay relative to control; assay type: functional; details: read-out: Survival
[22] = Survival of human H209 cells at 1 uM under deem light after 96 hrs by MTT assay relative to control; assay type: functional; details: NCI-H209, 96 h, read-out: Survival
HeLa [23] = assay: Survival of human HeLa cells at 100 uM under deem light after 96 hrs by MTT assay relative to control; assay type: functional; details: read-out: Survival
HeLa [24] = assay: Survival of human HeLa cells at 50 uM under deem light after 96 hrs by MTT assay relative to control; assay type: functional; details: read-out: Survival
NCI-H69 [25] = assay: Survival of human H69 cells at 0.1 uM under deem light after 96 hrs by MTT assay relative to control; assay type: functional; details: NCI-H69, 96 h, read-out: Survival
HeLa [26] = assay: Survival of human HeLa cells at 0.1 uM under deem light after 96 hrs by MTT assay relative to control; assay type: functional; details: read-out: Survival
Raji [27] = assay: Cytotoxicity against human Raji cells under deem light after 96 hrs by MTT assay; assay type: functional, cell-based
K562 [28] = assay: Survival of human K562 cells at 15.7 uM under deem light after 96 hrs by MTT assay relative to control; assay type: functional; details: K562, 96 h, read-out: Survival
K562 [29] = assay: Cytotoxicity against human K562 cells under deem light after 96 hrs by MTT assay; assay type: functional, cell-based; details: K562, 96 h
K562 [30] = assay: Survival of human K562 cells at 50 uM under deem light after 96 hrs by MTT assay relative to control; assay type: functional; details: K562, 96 h, read-out: Survival
[31] = Photohemolysis in human RBC at 125 nM under exposure to light for 10 mins; assay type: ADME, cell-based, Erythrocyte; details: human red blood cells, read-out: Activity
Raji [32] = assay: Survival of human Raji cells at 1 uM under deem light after 96 hrs by MTT assay relative to control; assay type: functional; details: read-out: Survival
[33] = Survival of human MDA-MB cells at 15.7 uM under deem light after 96 hrs by MTT assay relative to control; assay type: functional; details: read-out: Survival
[34] = Survival of human H209 cells at 100 uM under deem light after 96 hrs by MTT assay relative to control; assay type: functional; details: NCI-H209, 96 h, read-out: Survival
HeLa [35] = assay: Survival of human HeLa cells at 15.7 uM under deem light after 96 hrs by MTT assay relative to control; assay type: functional; details: read-out: Survival
HeLa [36] = assay: Survival of human HeLa cells at 1 uM under deem light after 96 hrs by MTT assay relative to control; assay type: functional; details: read-out: Survival
K562 [37] = assay: Survival of human K562 cells at 0.1 uM under deem light after 96 hrs by MTT assay relative to control; assay type: functional; details: K562, 96 h, read-out: Survival
SiHa [38] = assay: Cytotoxicity against human SIHA cells under deem light after 96 hrs by MTT assay; assay type: functional, cell-based
SiHa [39] = assay: Survival of human SIHA cells at 100 uM under deem light after 96 hrs by MTT assay relative to control; assay type: functional; details: read-out: Survival
NCI-H69 [40] = assay: Cytotoxicity against human H69 cells under deem light after 96 hrs by MTT assay; assay type: functional, cell-based; details: NCI-H69, 96 h
[41] = Survival of human 2780.9S cells at 0.1 uM under deem light after 96 hrs by MTT assay relative to control; assay type: functional; details: read-out: Survival
NCI-H69 [42] = assay: Survival of human H69 cells at 100 uM under deem light after 96 hrs by MTT assay relative to control; assay type: functional; details: NCI-H69, 96 h, read-out: Survival
NCI-H69 [43] = assay: Survival of human H69 cells at 50 uM under deem light after 96 hrs by MTT assay relative to control; assay type: functional; details: NCI-H69, 96 h, read-out: Survival
[44] = Survival of human 2780.9S cells at 15.7 uM under deem light after 96 hrs by MTT assay relative to control; assay type: functional; details: read-out: Survival
[45] = Photohemolysis in human RBC assessed as concentration required to 50% hemolysis under light exposure for 5 mins; assay type: ADME, cell-based, Erythrocyte; details: human red blood cells, read-out: Activity
[46] = Survival of human 2780.9S cells at 50 uM under deem light after 96 hrs by MTT assay relative to control; assay type: functional; details: read-out: Survival
[47] = Survival of human 2780.9S cells at 100 uM under deem light after 96 hrs by MTT assay relative to control; assay type: functional; details: read-out: Survival
[48] = Photohemolysis in human RBC assessed as concentration required to 50% hemolysis under light exposure for 10 mins; assay type: ADME, cell-based, Erythrocyte; details: human red blood cells, read-out: Activity
Daudi = assay: Cytotoxicity against human Daudi cells under deem light after 96 hrs by MTT assay; assay type: functional, cell-based
[49] = Cytotoxicity against human 2780.9S cells under deem light after 96 hrs by MTT assay; assay type: functional, cell-based
[50] = Survival of human H209 cells at 50 uM under deem light after 96 hrs by MTT assay relative to control; assay type: functional; details: NCI-H209, 96 h, read-out: Survival

CCCOC(C)C1=C(C)c2cc3[nH]c(cc4nc(cc5[nH]c(cc1n2)c(C)c5CCC(=O)NCCO)C(CCC(=O)NCCO)=C4C)c(C)c3C(C)OCCC (stereo unspecified) [HEMATOPORPHYRIN PROPYLETHER ETHANOLAMIDE]
viability at 15.7 µM (NCI-H69 [1]): 17.1%
viability at 10 µM [2]: 104%
IC50 [3]: 12 µM
viability at 1 µM (NCI-H69 [4]): 97%
Activity [5]: Non-toxic
viability at 1 µM [6]: 100%
viability at 1 µM (K562 [7]): 84.7%
viability at 0.1 µM [8]: 97.8%
viability at 15.7 µM [9]: 16.1%
viability at 0.1 µM [10]: 137%
viability at 15.7 µM (Raji [11]): 23.6%
viability at 50 µM (SiHa [12]): 2.2%
viability at 100 µM (K562 [13]): 6.67%
viability at 50 µM (Raji [14]): 5.9%
viability at 0.1 µM (Raji [15]): 96.1%
viability at 1 µM (SiHa [16]): 100%
IC50 (HeLa [17]): 21 µM
viability at 1 µM [18]: 112%
viability at 100 µM [19]: 5.2%
viability at 100 µM (Raji [20]): 5.4%
viability at 50 µM [21]: 7.4%
viability at 1 µM [22]: 105%
viability at 100 µM (HeLa [23]): 10.5%
viability at 50 µM (HeLa [24]): 7.4%
viability at 0.1 µM (NCI-H69 [25]): 95.5%
viability at 0.1 µM (HeLa [26]): 99.6%
IC50 (Raji [27]): 21 µM
viability at 15.7 µM (K562 [28]): 28.5%
IC50 (K562 [29]): 22 µM
viability at 50 µM (K562 [30]): 5.7%
hemolysis at 10 min, 0.125 µM [31]: 100%
viability at 1 µM (Raji [32]): 99.5%
viability at 15.7 µM [33]: 24.3%
viability at 100 µM [34]: 9.8%
viability at 15.7 µM (HeLa [35]): 7.8%
viability at 1 µM (HeLa [36]): 119%
viability at 0.1 µM (K562 [37]): 72.9%
IC50 (SiHa [38]): 44 µM
viability at 100 µM (SiHa [39]): 6.7%
IC50 (NCI-H69 [40]): 22 µM
viability at 0.1 µM [41]: 106%
viability at 100 µM (NCI-H69 [42]): 14.4%
viability at 50 µM (NCI-H69 [43]): 16.1%
viability at 15.7 µM [44]: 19.3%
HC50 at 5 min [45]: 90 nM
viability at 50 µM [46]: 12.3%
viability at 100 µM [47]: 6.5%
HC50 at 10 min [48]: 210 nM
IC50 (Daudi): 22 µM
IC50 [49]: 16 µM
viability at 50 µM [50]: 8.6%

Source: ChEMBL document CHEMBL1141575, “Preparation and in vitro biological evaluation of tetrapyrrole ethanolamide derivatives as potential anticancer agents” (Bioorg Med Chem Lett, 2008)
